In patent US12036228B2, “Treatment of seizure disorders” (Shackelford Pharma Inc., priority 2022, dated 2024):
Values joined by “and” are separate entries in the source; they are usually repeats but may differ in a detail not shown here. Equal values may be shown once.

Experiments:
Type in all cases: in vivo
[1] = test system: GTC seizures in human patient; assay: Example 7 human patient, intractable GTC seizures; conditions: 10 mg THC with 10 mg CBD orally daily at bedtime, with Trileptal and clonazepam
Source text: A patient was first diagnosed with intractable GTC seizures without status epilepticus in 2001.
The patient first presented for cannabinoid treatment on May 24, 2013. They were then a PhD student in economics. The patient's medical history is significant for having a car accident with a concussion and “scarring”. They developed GTC seizures occurring 3 times per month. […] In 2008, they started using recreational cannabis occasionally, but not regularly.

[2] = test system: GTC seizures in human patient; assay: Example 5 human patient, GTC seizures caused by cerebral angioma
Source text: A patient first started having GTC seizures in 2007 which were caused by a cerebral angioma. […] The freedom from seizures allowed them to stop taking Lamictal, and the resolution of the medication side effects allowed them to return to work.

[3] = test system: GTC seizures in human patient; assay: Example 2 human patient, Dravet syndrome
Description: A patient first started having seizures and was subsequently diagnosed with Dravet syndrome. Initially, they were having clusters of 2 GTC seizures a day for 2 days occurring about every 2 weeks. Keppra was ineffective as were other combinations of anti-epileptic drugs. Several different combinations were tried and by the time they were first seen for evaluation for cannabinoid treatment on Aug. 7, 2014, they were taking Depakote 125 mg BID, Clonazepam 0.5 mg TID, and Versed/Diastat as needed for rescue but was still having clusters of GTC seizures every 2 weeks. The patient had started a CBD product on Jul. 3, 2014 (product analysis: 11.2 mg CBD/gm with 0.38 mg THC/gm at a dose of 0.7 mL TID (unknown concentration per mL), but seizures still were occurring irregularly—primarily GTC occurring in clusters of 1-2 per day every two weeks, rare atonic, and occasional eye-flutters.

[4] = test system: GTC seizures in human patients; assay: THC treatment of several human patients with GTC seizures (responder rate, one-year remission rate, adverse effects); conditions: for Increase in 1 YR Seizure Remission Rate over expected: expected 5%; for THC-related adverse event: one adult patient
Source text: Several human patients commenced treatment with THC after a first visit. More details about the treatment are provided below. The group included 82 total adult patients and 12 total pediatric patients. Of those 94 patients, 34 adult patients and 10 pediatric patients had experienced at least one GTC seizure in the year preceding the first visit. At the time of first visit, 14 of the 34 adult patients and 8 of the 10 pediatric patients had never taken THC. At the time of first visit, five of the 34 adult patients and two of the 10 pediatric patients were consistently/regularly taking THC. At the time of first visit, 15 of the 34 adult patients and none of the 10 pediatric patients were inconsistently/irregularly taking THC or had taken THC at some point in the past and were no longer taking THC.
At the time of first visit, 16 of the 34 adult patients had treatment resistant epilepsy, which means the patients had persistent GTC seizures despite taking two different anti-seizure medications at, or prior to, the first visit. At the time of first visit, all 10 of the pediatric patients had treatment resistant epilepsy.
The first visit means the date when the patient first saw the doctor for evaluation for THC treatment for GTC seizures. Responder rates means the percentage of patients that had at least a 50% reduction in GTC seizure frequency over a one-year treatment period with THC. One-year remission rate means the percentage of patients that experienced no GTC seizures in a one-year period after commencing THC treatment.
All of the 34 adult patients and 10 pediatric patients were taking other anti-seizure medications or had other anti-seizure treatment at the time of the first visit. […] Those anti-seizure medications and other anti-seizure treatments included: lamotrigine, topiramate, topiramate XR, vagus nerve stimulation, phenytoin, valproic acid, zonisamide, benzodiazepine, surgery, levetiracetam, carbamazepine, oxcarbazepine, lacosamide, perampanel, clonazepam, phenobarbial, pregabalin, gabapentin, rufinamide, CBD (e.g., Epidiolex), clobazam, and felbamate. Also, all patients who were using THC oral dosages were using products that included no CBD or products that included CBD in doses well below the therapeutic dose for Epidiolex.
THC Treatment for the 82 adult patients varied. Many of the patients smoked marijuana, so the dosage and/or timing of the dosage was unknown. Because CBD is delivered at sub-therapeutic levels when marijuana is smoked, it is acceptable to attribute any therapeutic effect to THC. The label for the CBD drug Epidiolex includes dosages starting at 5 mg/kg daily for all indications, and increasing to maintenance doses of 10 mg/kg or 20 mg/kg for Lennox-Gestault Syndrome and Dravet Syndrome, and increasing to maintenance doses of 25 mg/kg per day for Tuberous Sclerosis Complex. When 1 gram of cannabis is smoked, it delivers CBD to the lungs in doses well below the therapeutic dose levels prescribed for Epidiolex. Some other patients took unknown dosages of THC orally.

[5] = test system: seizures / EEG abnormalities in human patient; assay: Example 8 pediatric patient with atonic seizures, myoclonic seizures and Doose syndrome (24 hour EEG, seizures)
Description: They had continued to experience several seizures per day of all types despite multiple combination regimens of prescription anti-seizure medications and a trial of THC-A transdermal patch and CBD (Charlotte's Web) oral tincture and CBD transdermal patches up until the day they were first evaluated for cannabinoid treatment (age 4.5 on Mar. 8, 2016). […] They were then prescribed 1 mg oral THC tincture three times per day. On Mar. 8, 2018, the patient returned for follow-up where it was learned that all cannabinoids had been discontinued. […] The THC-A transdermal patch was restarted at 1.875 mg/day with a reduction in EEG abnormalities to 400/24 hours. Oral THC 2.5 mg BID was then restarted with a further reduction in EEG abnormalities to 20/24 hours. […] Due to the significant reduction in brain pre-seizure activity after restarting THC and concerns that there are effective dosage variations among transdermal products, the patient was then prescribed oral THC 2.5 mg BID which they continue to take.

[6] = 14 adult patients who had never taken THC prior to first visit

CCCCCc1cc(O)c2c(c1)OC(C)(C)[C@@H]1CCC(C)=C[C@@H]21 [THC, Delta-9-tetrahydrocannabinol]
seizures [1]: no seizures since restarting cannabinoids | seizure status ([2]; only orally administered THC-infused confections and drinks): still seizure-free | seizure status ([2]; orally administered THC reduced from 150 milligrams to 70 mg at bedtime): continued seizure freedom | cognitive function ([3]; 20 mg CBD+20 mg THC TID regimen): significantly better | seizure-free duration ([3]; Depakote+Onfi+stiripentol+5 mg THC HS): 15 months | seizures after THC added back ([3]; THC 5 mg HS, CBD removed): improvement in the number and severity of all seizure types | behavioral effect when used as rescue medication ([3]; THC applied to the oral mucosa): no behavioral compromise | termination of seizures as rescue medication ([3]; THC applied to the oral mucosa, 6 non-convulsive seizures): rapidly terminated | seizures when THC was dropped from the regimen ([3]; patient not receiving THC, Apr. 25 to Dec. 3, 2017): frequency and severity of all seizure types increased | effect as rescue medication ([3]; two drops THC to gums): rapid effect | GTC seizure outcome, individual pediatric patient ([4]; 1.8 mg THC transdermal patch daily+2.5 mg oral THC at bedtime, 5 mg CBD BID, 63.3 kg): 50% reduction in GTC seizure rates in a one-year period following THC treatment | GTC seizure outcome, individual pediatric patient ([4]; 2-3 mg THC+30 mg CBD orally, BID, 17.3 kg): no GTC seizures in a one-year period following THC treatment | GTC seizure outcome, individual pediatric patient ([4]; 5-10 mg THC+10-20 mg CBD orally, daily at bedtime, 34.1 kg): no GTC seizures in a one-year period following THC treatment | adverse effects ([4]; 12 children): none experienced adverse effects | 1 YR Seizure Remission Rate [4, 6]: 36% | Responder Rate (at least 50% reduction in GTC seizure frequency over one year) [4, 6]: 71% | Adverse Events ([4]; 82 adult patients): 2% (2/82) | THC-related adverse effects ([4]; 82 adults treated with THC (sleepiness; reduced mental clarity)): only two patients experienced THC-related adverse effects | Increase in 1 YR Seizure Remission Rate over expected ([4]; Adult, calculated using the 29% (2/7) remission rate): ~**5.8X | GTC seizure outcome, individual pediatric patient ([4]; GTCs and cerebral palsy, CBD 20 mg with 6% THC (1.2 mg) per day orally): resolution of all GTC seizure activity | Adverse Events ([4]; Pediatric patients (0/13)): 0% (0/13) | Increase in 1 YR Seizure Remission Rate over expected ([4]; Pediatric, calculated using the 37.5% (3/8) remission rate): ~***7.5X | effect as rescue treatment, individual pediatric patient ([4]; THC (only), 10 mg/mL, 1-3 mg THC as rescue): complete resolution of seizures | patients with 50% reduction in GTC seizure rates and no GTC seizures in a one-year period following THC treatment ([4]; of 34 adult patients): 15 patients | patients with 50% reduction in GTC seizure rates but not seizure free for a one-year period following THC treatment ([4]; of 34 adult patients): 9 patients | patients without 50% reduction in GTC seizure rates and not seizure free for a one-year period following THC treatment ([4]; of 34 adult patients): 10 patients | THC-related adverse event ([4]; 2-3 mg THC and 38 mg CBD orally TDD): sleepiness | THC-related adverse event ([4]; unknown amounts of THC orally): mental unclarity | GTC seizure outcome, individual pediatric patient ([4]; same patient, 60-70 mg THC orally TDD in 2 divided doses): continued seizure remission | GTC seizure outcome, individual pediatric patients ([4]; two patients, 4-12 mg THC TDD): no GTC seizures in a one-year period following THC treatment and 50% reduction in GTC seizure rate in a one-year period following THC treatment | EEG abnormalities ([5]; Oral THC 2.5 mg BID restarted after THC-A patch): 20 /24 hours | observable seizures ([5]; Oral THC 2.5 mg BID with THC-A patch): no observable seizures
